Results from patent US7199129B2, “Derivatives of morphine-like opioid compounds” (Monash University, priority 2001, dated 2007).
Values joined by “and” are separate entries in the source; they are usually repeats but may differ in a detail not shown here. Identical values can stand only once. Counter-ions that a name gives are not always drawn.

Columns and labels:
ICR mice [1] = assay: Phenylquinone-induced writhing assay in mice (Example 18); assay type: in vivo; settings: IP; for Number of Writhings Individual: individual mice
Description: Testing on compounds KRS-6-26 and JFY-058 was also carried out under contract by MDS Services—Taiwan Ltd. The study was designed to evaluate the effects of the compounds as analgesics in the phenylquinone-induced writhing assay described in detail in Example 13(Siegmund et al, 1957).
(§1) In each case, a serial 2-fold dosage variance was used in the test, from 128 mg/kg to 1 mg/kg (8 doses in total). Groups of 3 male or female ICR mice weighing 22±2 g were employed. A serial 2-fold dosage variance was used in the test (8 doses in total). Variant doses (1, 2, 4, 8, 16, 32, 64 and 128 mg/kg) of test substances were administered intraperitoneally (IP). A vehicle of 2% Tween 80 in 0.9% NaCl was used for the intraperitoneal injection. The control group received vehicle alone. […] A reduction in the number of writhes by 50 percent or more (≧50%) relative to the vehicle-treated group indicated possible analgesic activity.

ICR mice [2] = assay: Phenylquinone-induced writhing model in mice (Example 16); assay type: in vivo; settings: IP, 3 mg/kg, Table 1
Description: as §1, with “KRS-5-150 was evaluated for possible analgesic activity in the phenylquinone-induced writhing model in mice (Siegmund et al, 1957). A” for “In each case, a”

ICR mice [3] = assay: Radiant heat-induced tail-flick response assay in mice; assay type: in vivo; settings: IP, 10 mg/kg
Description: For the tail-flick assay, groups of four male or female ICR mice weighing 22±2 g were used, and the test compound dissolved in 2% Tween 80/0.9% NaCl was administered intraperitoneally. The compound was administered intraperitoneally at 4, 8, 16 or 32 mg/kg, using 2% Tween 80—0.9% NaCl as the vehicle. Controls received vehicle alone. Morphine-HCl at a dose of 10 mg/kg was used as a positive control. At the pre-treatment point (0 minutes) a focused beam of radiant heat was applied to the middle dorsal surface of the tail to elicit a tail-flick response. […] The time required to elicit a pain response was recorded for each animal at 30 minutes following administration of the test compound. A prolongation of 50% or more ≧50% of the time required to elicit tail-flick response indicated possible analgesic activity.

ICR mice [4] = assay: Straub tail behaviour (indicator of CNS activity) and observed signs in test animals
Source text: The Straub test is an indicator of CNS activity.
The tail-flick test is thought to involve central nervous system activity, and therefore provides further confirmation of the Straub tail test.

human δ-opiate receptor = target: T1, human δ-opiate receptor (Homo sapiens, UniProt P41143); assay: In vitro opiate receptor radioligand binding assay, δ; settings: test compound 10 μM; read-out: Percentage inhibition of radioligand binding, δ-opiate receptor
T1 construct: purchased MDS Pharma Services 260110
Description: (§2) To characterise the target specificity of the compounds, KRS-5-150 and KRS-6-26 were tested at a concentration of 10 μM for their ability to inhibit the binding of a radioligand to human δ-, κ-, or μ-opiate receptors in vitro using commercially available assays (MDS Pharma Services; assay catalogue numbers 260110, 260210 and 260410 respectively).
(§3) Percentage inhibition of radioligand binding to human opioid receptors in vitro by test compounds (10 μM)

human μ-opiate receptor = target: T2, human μ-opiate receptor (Homo sapiens, UniProt P35372); assay: In vitro opiate receptor radioligand binding assay, μ; settings: test compound 10 μM; read-out: Percentage inhibition of radioligand binding, μ-opiate receptor
T2 construct: purchased MDS Pharma Services 260410
Description: as §2, §3

human κ-opiate receptor = target: T3, human κ-opiate receptor (Homo sapiens, UniProt P41145); assay: In vitro opiate receptor radioligand binding assay, κ; settings: test compound 10 μM; read-out: Percentage inhibition of radioligand binding, κ-opiate receptor
T3 construct: purchased MDS Pharma Services 260210
Description: as §2, §3

T3 sequence (P41145 whole entry): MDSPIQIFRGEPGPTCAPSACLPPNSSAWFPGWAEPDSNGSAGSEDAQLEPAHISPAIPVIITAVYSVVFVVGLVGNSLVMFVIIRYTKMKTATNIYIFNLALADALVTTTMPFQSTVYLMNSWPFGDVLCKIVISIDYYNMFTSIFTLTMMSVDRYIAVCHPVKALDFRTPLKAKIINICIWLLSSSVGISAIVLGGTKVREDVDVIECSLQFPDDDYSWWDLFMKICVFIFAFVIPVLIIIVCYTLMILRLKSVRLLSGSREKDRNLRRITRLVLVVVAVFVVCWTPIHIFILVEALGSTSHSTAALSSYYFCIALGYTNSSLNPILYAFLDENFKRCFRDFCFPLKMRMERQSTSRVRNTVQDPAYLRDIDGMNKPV
T2 sequence (P35372 whole entry): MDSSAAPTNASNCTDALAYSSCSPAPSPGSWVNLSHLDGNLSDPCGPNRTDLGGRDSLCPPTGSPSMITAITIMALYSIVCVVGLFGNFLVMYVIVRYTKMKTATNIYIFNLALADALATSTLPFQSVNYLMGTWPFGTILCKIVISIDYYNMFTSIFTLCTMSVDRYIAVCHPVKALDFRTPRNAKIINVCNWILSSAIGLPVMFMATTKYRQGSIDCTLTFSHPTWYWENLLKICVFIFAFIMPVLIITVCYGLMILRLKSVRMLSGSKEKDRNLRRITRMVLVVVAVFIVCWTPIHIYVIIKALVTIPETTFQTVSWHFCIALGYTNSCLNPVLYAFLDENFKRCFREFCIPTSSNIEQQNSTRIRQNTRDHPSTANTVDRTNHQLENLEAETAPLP
T1 sequence (P41143 whole entry): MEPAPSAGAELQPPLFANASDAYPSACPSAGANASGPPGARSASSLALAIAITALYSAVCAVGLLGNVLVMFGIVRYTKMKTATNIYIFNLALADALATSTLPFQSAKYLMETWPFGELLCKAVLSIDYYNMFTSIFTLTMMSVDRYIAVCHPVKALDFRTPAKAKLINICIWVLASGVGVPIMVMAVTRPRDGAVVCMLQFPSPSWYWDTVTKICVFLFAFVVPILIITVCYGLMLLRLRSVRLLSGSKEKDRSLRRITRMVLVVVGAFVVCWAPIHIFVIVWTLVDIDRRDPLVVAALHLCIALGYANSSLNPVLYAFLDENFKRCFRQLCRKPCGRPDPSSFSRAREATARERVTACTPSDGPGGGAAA

CN1CC[C@]23c4c5ccc(O)c4O[C@H]2[C@@H](O)C=C[C@H]3[C@H]1C5 [Morphine.HCl, reference compound]
% Inhibition (ICR mice [1]; 3 mg/kg, Table 4): 100%
Number of Writhings Average (ICR mice [1]; 3 mg/kg, Table 4): 0
% Inhibition (ICR mice [1]; 3 mg/kg, Table 5): 100%
Number of Writhings Average (ICR mice [1]; 3 mg/kg, Table 5): 0
Number of Writhings Individual (ICR mice [1]; 3 mg/kg, Table 4): 1 and 0 (2×)
Number of Writhings Individual (ICR mice [1]; 3 mg/kg, Table 5): 0
% Inhibition (ICR mice [2]): 100%
No. of Writhings Individual (ICR mice [2]; individual mice): 0
% Inhibition (prolongation of tail-flick response time) (ICR mice [3]; 30 minutes): (100) %
Response Time (Seconds) 30 Mins., Average (ICR mice [3]; 30 minutes after administration): 13.6 s
Response Time (Seconds) 30 Mins. (ICR mice [3]; individual mice, 30 minutes after administration, cut-off 15 seconds): >15.0 Seconds (3×) and 9.4 Seconds
Response Time (Seconds) 0 Time (ICR mice [3]; individual mice, pre-treatment (0 minutes)): 6.3 Seconds (2×) and 6.2 Seconds and 6.5 Seconds
Response Time (Seconds) 0 Time, Average (ICR mice [3]; pre-treatment (0 minutes)): 6.3 s
test animals exhibiting the Straub tail phenomenon (ICR mice [4]; 3 mg/kg, Example 16): 1 of 3
test animals with slight Straub tail phenomenon (ICR mice [4]; 3 mg/kg, Example 18): 2 of 3

(5α,6α)-7,8-didehydro-4,5-epoxy-17-(N,N′-bis-p-tolylcarboxamidino-3-aminopropyl)morphinan-3,6-diol [KRS-6-26]
analgesic activity (≧50% reduction in writhes) (ICR mice [1]; doses of 128, 64, 32, 16, 8, 4, 2 and 1 mg/kg): significant activity

Cc1ccc(N=C(NCCCN2CC[C@]34c5c6ccc(O)c5O[C@H]3[C@@H](O)C=CC4[C@H]2C6)Nc2ccc(C)cc2)cc1 (stereo partly drawn) [KRS-6-26, (5α,6α)-7,8-didehydro-4,5-epoxy-17-(N,N′-bis-p-tolylcarboxamidino-3-aminopropyl)morphinan-3,6-diol]
% Inhibition (ICR mice [1]; 1 mg/kg, Table 4): 50%
Number of Writhings Average (ICR mice [1]; 1 mg/kg, Table 4): 6
Number of Writhings Individual (ICR mice [1]; 1 mg/kg, Table 4): 0 and 13 and 4
% Inhibition (ICR mice [1]; 2 mg/kg, Table 4): 50%
Number of Writhings Average (ICR mice [1]; 2 mg/kg, Table 4): 6
Number of Writhings Individual (ICR mice [1]; 2 mg/kg, Table 4): 13 and 2 and 4
% Inhibition (ICR mice [1]; 4 mg/kg, Table 4): 75%
Number of Writhings Average (ICR mice [1]; 4 mg/kg, Table 4): 3
Number of Writhings Individual (ICR mice [1]; 4 mg/kg, Table 4): 0 and 7 and 2
% Inhibition (ICR mice [1]; 8 mg/kg, Table 4): 92%
Number of Writhings Average (ICR mice [1]; 8 mg/kg, Table 4): 1
Number of Writhings Individual (ICR mice [1]; 8 mg/kg, Table 4): 1 and 0 and 2
% Inhibition (ICR mice [1]; 16 mg/kg, Table 4): 100%
Number of Writhings Average (ICR mice [1]; 16 mg/kg, Table 4): 0
Number of Writhings Individual (ICR mice [1]; 16 mg/kg, Table 4): 0
% Inhibition (ICR mice [1]; 32 mg/kg, Table 4): 100%
Number of Writhings Average (ICR mice [1]; 32 mg/kg, Table 4): 0
Number of Writhings Individual (ICR mice [1]; 32 mg/kg, Table 4): 0 (2×) and 1
% Inhibition (ICR mice [1]; 64 mg/kg, Table 4): 100%
Number of Writhings Average (ICR mice [1]; 64 mg/kg, Table 4): 0
Number of Writhings Individual (ICR mice [1]; 64 mg/kg, Table 4): 0
% Inhibition (ICR mice [1]; 128 mg/kg, Table 4): 100%
Number of Writhings Average (ICR mice [1]; 128 mg/kg, Table 4): 0
Number of Writhings Individual (ICR mice [1]; 128 mg/kg, Table 4): 0
inhibition in writhing (ICR mice [1]; doses higher than 8 mg/kg): 100%
deaths (ICR mice [1]; up to 128 mg/kg): no deaths
inhibition at 10 µM (human δ-opiate receptor): 95%
inhibition at 10 µM (human μ-opiate receptor): 99%
inhibition at 10 µM (human κ-opiate receptor): 94%
test animals exhibiting slight Straub tail behaviour (ICR mice [4]; IP, 16 mg/kg, Example 18): one
test animals exhibiting slight Straub tail behaviour and piloerection (ICR mice [4]; IP, 128, 64 and 32 mg/kg, Example 18): 2 of 3

Oc1ccc2c3c1OC1C(O)C=CC4C(C2)N(/C(=N/c2ccccc2)Nc2ccccc2)CCC341 (stereo not drawn) [JFY-058, (5α,6α)-7,8-didehydro-4,5-epoxy-17-(N,N′-bisphenylcarboxamidino)morphinan, 3,6-diol]
% Inhibition (ICR mice [1]; 1 mg/kg, Table 5): 17%
Number of Writhings Average (ICR mice [1]; 1 mg/kg, Table 5): 15
Number of Writhings Individual (ICR mice [1]; 1 mg/kg, Table 5): 17 and 19 and 10
% Inhibition (ICR mice [1]; 2 mg/kg, Table 5): 33%
Number of Writhings Average (ICR mice [1]; 2 mg/kg, Table 5): 12
Number of Writhings Individual (ICR mice [1]; 2 mg/kg, Table 5): 15 and 13 and 8
% Inhibition (ICR mice [1]; 4 mg/kg, Table 5): 39%
Number of Writhings Average (ICR mice [1]; 4 mg/kg, Table 5): 11
Number of Writhings Individual (ICR mice [1]; 4 mg/kg, Table 5): 15 and 6 and 11
% Inhibition (ICR mice [1]; 8 mg/kg, Table 5): 39%
Number of Writhings Average (ICR mice [1]; 8 mg/kg, Table 5): 11
Number of Writhings Individual (ICR mice [1]; 8 mg/kg, Table 5): 3 and 15 and 14
% Inhibition (ICR mice [1]; 16 mg/kg, Table 5): 78%
Number of Writhings Average (ICR mice [1]; 16 mg/kg, Table 5): 4
Number of Writhings Individual (ICR mice [1]; 16 mg/kg, Table 5): 2 and 1 and 8
% Inhibition (ICR mice [1]; 32 mg/kg, Table 5): 100%
Number of Writhings Average (ICR mice [1]; 32 mg/kg, Table 5): 0
Number of Writhings Individual (ICR mice [1]; 32 mg/kg, Table 5): 0 (2×) and 1
% Inhibition (ICR mice [1]; 64 mg/kg, Table 5): 100%
Number of Writhings Average (ICR mice [1]; 64 mg/kg, Table 5): 0
Number of Writhings Individual (ICR mice [1]; 64 mg/kg, Table 5): 0
% Inhibition (ICR mice [1]; 128 mg/kg, Table 5): 100%
Number of Writhings Average (ICR mice [1]; 128 mg/kg, Table 5): 0
Number of Writhings Individual (ICR mice [1]; 128 mg/kg, Table 5): 0
analgesic activity (≧50% reduction in writhes) (ICR mice [1]; doses of 128, 64, 32 and 16 mg/kg): significant activity
Straub tail behaviour (ICR mice [4]; IP, 40 minute observation period after administration, Example 18): None of the test animals exhibited Straub tail behaviour
